Measured values: patent US6407288B1, “Naphthylsalicylanilides as antimicrobial and antiinflammatory agents” (The Research Foundation of State University of New York, priority 2000, dated 2002)

Legend:
[1] = test system: Str.pn.R (strain 00-041-0614); assay: Sensitivity of strain to known antibiotics; type: cell-based, Streptococcus; settings: sensitive / resistant
Procedure: (§1) This embodiment illustrates the efficacy of the compounds of the present invention against Streptococcus strains. One of the strains, Str.pn.R was obtained from the Children's Hospital in Buffalo (strain 00-041-0614). […] The sensitivity of this strain was tested against several known antibiotics.

[2] = test system: staphylococcus species R (strain 00-045-1209); assay: Sensitivity of strain to known antibiotics; type: cell-based; settings: sensitive / resistant
Procedure: (§2) This embodiment describes the sensitivity of various staphylococcus strains to the compounds of the present invention. The staphylococcus species R is a strain 00-045-1209 from the Children's Hospital in Buffalo. It was isolated from the peritoneal cavity (fluid culture) of an individual. It was coagulase negative. The sensitivity of this strain was tested agaisnt several known antibiotics.

S. mutans = assay: MIC microdilution, gram positive; type: cell-based, Streptococcus mutans; settings: Table 1, Gram Positive
Procedure: (§3) The MIC's for the compounds were determined by a modified microdilution tube dilution method described in “Methods for Dilution Antimicrobial Susceptibility Tests for Bacteria that Grow Aerobically” (National Committee for Clinical Laboratory Standards Approved Standards, 1997, NCCLS document M7-A4). In general the modifications were made because of the unique growth requirements for the fastidious oral organisms and for those bacteria that require anaerobic conditions. Reference is also made to “Methods for Antimicrobial Susceptibility of Anaerobic Bacteria” (National Committee for Clinical Laboratory Standards Approved Standards, 1997, NCCLS document M11-A4). Briefly, the methods were as follows. Cultures were grown for 18-24hrs (aerobic bacteria) or 48-72 hrs (anaerobic bacteria) in the appropriate medium. For aerobic bacteria full strength brain heart infusion medium (BHI, Difco) was used. For anaerobic bacteria, half strength BHI (18.5 g/L) was supplemented by adding yeast extract (10 g/L), hemin (0.29 mL of a stock solution containing 0.1 g/200 mL dH2O) and menadione (15 mL of a stock solution containing 0.15 mL in 30 mL 95% EtOH) was used. Initial cultures were diluted to approximately 1×10^8 CFU/mL for use as an inoculum. Each assay received 10 μL of the inoculum. The drugs were prepared from a stock solution contained in dimethyl sulfoxide (DMSO) and diluted into the culture medium. Final concentrations of the drugs ranged from 50 to 0.05 μg/assay. The tests were run in duplicate and were incubated appropriately with regard to oxygen requirements for 24 to 48 hrs as required. Anaerobic incubation was an atmosphere of 5% CO2, 10% H2, with the balance N2. The lowest concentration of an antimicrobial agent at which no visible growth is noted was referred to as the MIC.

S. sanguis = assay: MIC microdilution, gram positive; type: cell-based, Streptococcus sanguis; settings: Table 1, Gram Positive
Procedure: as §3

S.salivarius = assay: MIC microdilution, gram positive; type: cell-based, Streptococcus salivarius; settings: Table 1, Gram Positive
Procedure: as §3

P. acnes 11828 = assay: MIC microdilution, gram positive; type: cell-based, Propionibacterium acnes; settings: Table 1, Gram Positive
Procedure: as §3

P. acnes 6922 = assay: MIC microdilution, gram positive; type: cell-based, Propionibacterium acnes; settings: Table 1, Gram Positive
Procedure: as §3

A. viscosus = assay: MIC microdilution, gram positive; type: cell-based, Actinomyces viscosus; settings: Table 2, Gram Positive
Procedure: as §3

S. aureus = assay: MIC microdilution, gram positive; type: cell-based, Staphlococcus aureus
Procedure: (§4) The MIC's for the compounds were determined by a modified microdilution tube dilution method described in “Methods for Dilution Antimicrobial Susceptibility Tests for Bacteria that Grow Aerobically” (National Committee for Clinical Laboratory Standards Approved Standards, 1997, NCCLS document M7-A4). In general the modifications were made because of the unique growth requirements for the fastidious oral organisms and for those bacteria that require anaerobic conditions. Reference is also made to “Methods for Antimicrobial Susceptibility of Anaerobic Bacteria” (National Committee for Clinical Laboratory Standards Approved Standards, 1997, NCCLS document M11-A4).
(§5) Briefly, the methods were as follows. Cultures were grown for 18-24hrs (aerobic bacteria) or 48-72 hrs (anaerobic bacteria) in the appropriate medium. For aerobic bacteria full strength brain heart infusion medium (BHI, Difco) was used. For anaerobic bacteria, half strength BHI (18.5 g/L) was supplemented by adding yeast extract (10 g/L), hemin (0.29 mL of a stock solution containing 0.1 g/200 mL dH2O) and menadione (15 mL of a stock solution containing 0.15 mL in 30 mL 95% EtOH) was used. Initial cultures were diluted to approximately 1×10^8 CFU/mL for use as an inoculum. Each assay received 10 μL of the inoculum. The drugs were prepared from a stock solution contained in dimethyl sulfoxide (DMSO) and diluted into the culture medium. Final concentrations of the drugs ranged from 50 to 0.05 μg/assay. The tests were run in duplicate and were incubated appropriately with regard to oxygen requirements for 24 to 48 hrs as required. Anaerobic incubation was an atmosphere of 5% CO2, 10% H2, with the balance N2. The lowest concentration of an antimicrobial agent at which no visible growth is noted was referred to as the MIC.
as §2

Lact 7496 = assay: MIC microdilution, gram positive; type: cell-based, Lactobacillus rhamnosus (casei); settings: Table 2, Gram Positive
Procedure: as §3

M. luteus = assay: MIC microdilution, gram positive; type: cell-based, Micrococcus luteus; settings: Table 2, Gram Positive
Procedure: as §3

Fuso. 25586 = assay: MIC microdilution, gram negative; type: cell-based, Fusobacterium nucleatum
Procedure: (§6) The MIC's for the compounds were determined by a modified microdilution tube dilution method described in “Methods for Dilution Antimicrobial Susceptibility Tests for Bacteria that Grow Aerobically” (National Committee for Clinical Laboratory Standards Approved Standards, 1997, NCCLS document M7-A4). In general the modifications were made because of the unique growth requirements for the fastidious oral organisms and for those bacteria that require anaerobic conditions. Reference is also made to “Methods for Antimicrobial Susceptibility of Anaerobic Bacteria” (National Committee for Clinical Laboratory Standards Approved Standards, 1997, NCCLS document M11-A4). Briefly, the methods were as follows. Cultures were grown for 18-24hrs (aerobic bacteria) or 48-72 hrs (anaerobic bacteria) in the appropriate medium. For aerobic bacteria full strength brain heart infusion medium (BHI, Difco) was used. For anaerobic bacteria, half strength BHI (18.5 g/L) was supplemented by adding yeast extract (10 g/L), hemin (0.29 mL of a stock solution containing 0.1 g/200 mL dH2O) and menadione (15 mL of a stock solution containing 0.15 mL in 30 mL 95% EtOH) was used. Initial cultures were diluted to approximately 1×10^8 CFU/mL for use as an inoculum. Each assay received 10 μL of the inoculum. The drugs were prepared from a stock solution contained in dimethyl sulfoxide (DMSO) and diluted into the culture medium. Final concentrations of the drugs ranged from 50 to 0.05 μg/assay. The tests were run in duplicate and were incubated appropriately with regard to oxygen requirements for 24 to 48 hrs as required. Anaerobic incubation was an atmosphere of 5% CO2, 10% H2, with the balance N2. The lowest concentration of an antimicrobial agent at which no visible growth is noted was referred to as the MIC. […] The method used was the same as described in Example 1.

Aa Y4 = assay: MIC microdilution, gram negative; type: cell-based, Actinobacillus actinomycetemcomitans
Procedure: as §6

P. ging 381 = assay: MIC microdilution, gram negative; type: cell-based, Porphyromonas gingivalis
Procedure: as §6

Pg 53977 = assay: MIC microdilution, gram negative; type: cell-based, Porphyromonas gingivalis
Procedure: as §6

B. fragilis = assay: MIC microdilution, gram negative; type: cell-based, Bacteroides fraglis
Procedure: as §6

Str. pn. R = assay: Mean Streptococcus MIC; type: cell-based; settings: Table 5, mean; strain resistant to penicillin and erythromycin
Procedure: as §4, §5, §1

Str. pn = assay: Mean Streptococcus MIC; type: cell-based; settings: Table 5, mean
Procedure: as §4, §5, §1

S. species R = assay: Staphylococcus MIC; type: cell-based, staphylococcus species R; settings: second Table 5 (Example 5); strain 00-045-1209
Procedure: as §4, §5, §2

[3] = Table 3 printed a second time, Gram Negative

CC[C@H]1OC(=O)[C@H](C)[C@@H](O[C@H]2C[C@@](C)(OC)[C@@H](O)[C@H](C)O2)[C@H](C)[C@@H](O[C@@H]2O[C@H](C)C[C@H](N(C)C)[C@H]2O)[C@](C)(O)C[C@@H](C)C(=O)[C@H](C)[C@@H](O)[C@]1(C)O [erythromycin]
sensitivity of strain Str.pn.R to known antibiotics [1]: resistant | sensitivity of staphylococcus species R to known antibiotics [2]: resistant

CO[C@H]1/C=C/O[C@@]2(C)Oc3c(C)c(O)c4c(O)c(c(/C=N/N5CCN(C)CC5)c(O)c4c3C2=O)NC(=O)/C(C)=C\C=C\[C@H](C)[C@H](O)[C@@H](C)[C@@H](O)[C@@H](C)[C@H](OC(C)=O)[C@@H]1C [Rifampin]
sensitivity of strain Str.pn.R to known antibiotics [1]: sensitive

CC1(C)S[C@@H]2[C@H](NC(=O)[C@H](N)c3ccc(O)cc3)C(=O)N2[C@H]1C(=O)O [amoxicillin]
sensitivity of staphylococcus species R to known antibiotics [2]: resistant

Cc1onc(-c2ccccc2)c1C(=O)N[C@@H]1C(=O)N2[C@@H]1SC(C)(C)[C@@H]2C(=O)O [oxacillin]
sensitivity of staphylococcus species R to known antibiotics [2]: resistant

penicillin
sensitivity of strain Str.pn.R to known antibiotics [1]: resistant

O=C(c1ccc(O)c(C(=O)Nc2cccc(C(F)(F)F)c2)c1)c1ccc2ccccc2c1 [NA2mF]
MIC S. mutans (S. mutans): NE (NE indicates that the drug was not effective at a concentration >50 micrograms/ml) | MIC S. sanguis (S. sanguis): 0.8 micrograms/ml | MIC S.salivarius (S.salivarius): 50 micrograms/ml | MIC P. acnes 11828 (P. acnes 11828): 0.4 micrograms/ml | MIC P. acnes 6922 (P. acnes 6922): 0.4 micrograms/ml | MIC A. viscosus (A. viscosus): NE (NE indicates that the drug was not effective at a concentration >50 micrograms/ml) | MIC S. aureus (S. aureus; Table 2, Gram Positive): NE (NE indicates that the drug was not effective at a concentration >50 micrograms/ml) | MIC S. aureus (S. aureus; second Table 5 (Example 5)): NE (NE indicates that the drug was not effective at a concentration >50 micrograms/ml) | MIC Lact 7496 (Lact 7496): 1.6 micrograms/ml | MIC M. luteus (M. luteus): 0.8 micrograms/ml | MIC Fuso. 25586 (Fuso. 25586; Table 3, Gram Negative): NE (NE indicates that the drug was not effective at a concentration >50 micrograms/ml) | MIC Fuso. 25586 (Fuso. 25586; [3]): NE (NE indicates that the drug was not effective at a concentration >50 micrograms/ml) | MIC Aa Y4 (Aa Y4; Table 3, Gram Negative): NE (NE indicates that the drug was not effective at a concentration >50 micrograms/ml) | MIC Aa Y4 (Aa Y4; [3]): NE (NE indicates that the drug was not effective at a concentration >50 micrograms/ml) | MIC P. ging 381 (P. ging 381; Table 3, Gram Negative): <0.4 micrograms/ml | MIC P. ging 381 (P. ging 381; [3]): <0.4 micrograms/ml | MIC Pg 53977 (Pg 53977; Table 3, Gram Negative): <0.4 micrograms/ml | MIC Pg 53977 (Pg 53977; [3]): <0.4 micrograms/ml | MIC B. fragilis (B. fragilis; Table 3, Gram Negative): NE (NE indicates that the drug was not effective at a concentration >50 micrograms/ml) | MIC B. fragilis (B. fragilis; [3]): NE (NE indicates that the drug was not effective at a concentration >50 micrograms/ml) | Mean Streptococcus MIC values Str. pn. R (Str. pn. R): 0.78 micrograms/ml | Mean Streptococcus MIC values Str. pn (Str. pn): 0.84 micrograms/ml | MIC S. species R (S. species R): 25.0 micrograms/ml

N[C@@H]1[C@H]2CN(c3nc4c(cc3F)c(=O)c(C(=O)O)cn4-c3ccc(F)cc3F)C[C@@H]12 [Trovoflox]
sensitivity of strain Str.pn.R to known antibiotics [1]: sensitive

CC[C@H]1OC(=O)[C@H](C)[C@@H](O[C@H]2C[C@@](C)(OC)[C@@H](O)[C@H](C)O2)[C@H](C)[C@@H](O[C@@H]2O[C@H](C)C[C@H](N(C)C)[C@H]2O)[C@](C)(O)C[C@@H](C)CN(C)[C@H](C)[C@@H](O)[C@]1(C)O [azithromycin]
sensitivity of staphylococcus species R to known antibiotics [2]: resistant

CO/N=C(\C(=O)N[C@@H]1C(=O)N2C(C(=O)O)=C(COC(C)=O)CS[C@H]12)c1csc(N)n1 [cefotaxime]
sensitivity of staphylococcus species R to known antibiotics [2]: resistant

CN[C@H](CC(C)C)C(=O)N[C@H]1C(=O)N[C@@H](CC(N)=O)C(=O)N[C@H]2C(=O)N[C@H]3C(=O)N[C@H](C(=O)N[C@H](C(=O)O)c4cc(O)cc(O)c4-c4cc3ccc4O)[C@H](O)c3ccc(c(Cl)c3)Oc3cc2cc(c3O[C@@H]2O[C@H](CO)[C@@H](O)[C@H](O)[C@H]2O[C@H]2C[C@](C)(N)[C@H](O)[C@H](C)O2)Oc2ccc(cc2Cl)[C@H]1O [Vancomycin]
sensitivity of strain Str.pn.R to known antibiotics [1]: sensitive | sensitivity of staphylococcus species R to known antibiotics [2]: sensitive
